Laboratory results reported in ChEMBL document CHEMBL1201862, “PubChem BioAssay data set” (2004).
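Compound exposure: 48 hours, 5 concentrations, 96-well plates. GI50 marks 50% less growth.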 Active and inactive are the calls of the source. Cut-off read from the data, not from the text of the source: active = GI50 up to about 1.1 µM and inactive = higher.

What was measured:
Experiment in all cases: NCI anticancer screen, dose series, 48 h
SK-MEL-5 = tested on: SK-MEL-5
HCC 2998 = tested on: HCC 2998
M14 = tested on: M14
RXF 393 = tested on: RXF 393
UO-31 = tested on: UO-31
Malme-3M = tested on: Malme-3M
SF-539 = tested on: SF-539
SK-MEL-2 = tested on: SK-MEL-2
OVCAR-4 = tested on: OVCAR-4
LOX IMVI = tested on: LOX IMVI
U-251 = tested on: U-251
MOLT-4 = tested on: MOLT-4
OVCAR-5 = tested on: OVCAR-5
HL-60 = tested on: HL-60
786-0 = tested on: 786-0
ACHN = tested on: ACHN
HCT-15 = tested on: HCT-15
NCI/ADR-RES = tested on: NCI/ADR-RES
MDA-MB-231 = tested on: MDA-MB-231
MCF7 = tested on: MCF7

SMILES | GI50 (SK-MEL-5) | GI50 (HCC 2998) | GI50 (M14) | GI50 (RXF 393) | GI50 (UO-31) | GI50 (Malme-3M) | GI50 (SF-539) | GI50 (SK-MEL-2) | GI50 (OVCAR-4) | GI50 (LOX IMVI) | GI50 (U-251) | GI50 (MOLT-4) | GI50 (OVCAR-5) | GI50 (HL-60) | GI50 (786-0) | GI50 (ACHN) | GI50 (HCT-15) [µM] | GI50 (NCI/ADR-RES) | GI50 (MDA-MB-231) | GI50 (MCF7)
CCO/C([O-])=C(\C(=O)c1ccc([N+](=O)[O-])cc1)[n+]1c(C)n(C)c2ccccc21 | > 100 µM (inactive) | > 100 µM (inactive) | > 100 µM (inactive) | > 100 µM (inactive) | > 100 µM (inactive) | > 100 µM (inactive) | > 100 µM (inactive) | > 100 µM (inactive) | > 100 µM (inactive) | > 100 µM (inactive) | > 100 µM (inactive) | > 100 µM (inactive) | > 100 µM (inactive) | > 100 µM (inactive) | > 100 µM (inactive) | – | – | – | – | –
O=C(c1ccccc1)C1(Br)S(=O)(=O)OCCOS1(=O)=O | > 100 µM (inactive) | > 100 µM (inactive) | > 100 µM (inactive) | > 100 µM (inactive) | > 100 µM (inactive) | > 100 µM (inactive) | > 100 µM (inactive) | > 100 µM (inactive) | > 100 µM (inactive) | > 100 µM (inactive) | > 100 µM (inactive) | > 100 µM (inactive) | > 100 µM (inactive) | > 100 µM (inactive) | > 100 µM (inactive) | > 100 µM (inactive) | > 100 | – | – | –
Oc1ccc(Br)cc1/C=N/c1ccc(Oc2ccc(/N=C/c3cc(Br)ccc3O)cc2)cc1 | > 19.6 µM (inactive) | > 19.6 µM (inactive) | > 19.6 µM (inactive) | > 19.6 µM (inactive) | > 19.6 µM (inactive) | > 19.6 µM (inactive) | > 19.6 µM (inactive) | > 19.6 µM (inactive) | > 19.6 µM (inactive) | > 19.6 µM (inactive) | > 19.6 µM (inactive) | > 19.6 µM (inactive) | > 19.6 µM (inactive) | > 19.6 µM (inactive) | > 19.6 µM (inactive) | > 19.6 µM (inactive) | – | – | – | –
OC[C@H](O)[C@@H](OCc1ccccc1)[C@H](NCc1ccccc1)c1cccs1 | > 100 µM (inactive) | – | > 100 µM (inactive) | – | 15.5 µM (inactive) | > 100 µM (inactive) | > 100 µM (inactive) | > 100 µM (inactive) | > 100 µM (inactive) | > 100 µM (inactive) | > 100 µM (inactive) | > 100 µM (inactive) | > 100 µM (inactive) | > 100 µM (inactive) | > 100 µM (inactive) | > 100 µM (inactive) | > 100 | > 100 µM (inactive) | > 100 µM (inactive) | > 100 µM (inactive)
C[C@@]1(O)CC[C@]2(C)C3CCCC3[C@H]12 (stereo partly drawn) | > 100 µM (inactive) | > 100 µM (inactive) | > 100 µM (inactive) | > 100 µM (inactive) | > 100 µM (inactive) | > 100 µM (inactive) | > 100 µM (inactive) | > 100 µM (inactive) | > 100 µM (inactive) | > 100 µM (inactive) | > 100 µM (inactive) | > 100 µM (inactive) | > 100 µM (inactive) | > 100 µM (inactive) | > 100 µM (inactive) | > 100 µM (inactive) | > 100 | – | – | –
COc1cc([C@@H]2c3cc4c(cc3[C@@H](NC(=O)c3ccc([N+](=O)[O-])cc3)C3COC(=O)[C@@H]32)OCO4)cc(OC)c1O (stereo partly drawn) | 0.361 µM (active) | 1.22 µM (inactive) | 0.653 µM (active) | 2.55 µM (inactive) | 2.63 µM (inactive) | 0.817 µM (active) | 0.275 µM (active) | 2.83 µM (inactive) | 8.04 µM (inactive) | 0.318 µM (active) | 0.108 µM (active) | < 0.01 µM (active) | 1.87 µM (inactive) | 0.0432 µM (active) | 0.242 µM (active) | 0.194 µM (active) | 1.57 | – | – | –
COc1cc(/C=C/c2ccc(OC)c(O)c2)cc(OC)c1 | 4.18 µM (inactive) | 20.3 µM (inactive) | 3.08 µM (inactive) | 1.25 µM (inactive) | 9.46 µM (inactive) | 10 µM (inactive) | 2.39 µM (inactive) | 6.41 µM (inactive) | 14.3 µM (inactive) | 12.2 µM (inactive) | 3.92 µM (inactive) | 3.35 µM (inactive) | 31.8 µM (inactive) | 1.75 µM (inactive) | 15.7 µM (inactive) | 7.52 µM (inactive) | 3.94 | – | – | –
CCCCCCCCCC(=O)OCC1OC(n2cc(F)c(=O)[nH]c2=O)C(NC(=O)OCc2ccccc2)C(OC(=O)CCCCCCCCC)C1O (stereo not drawn) | 20.3 µM (inactive) | 41.2 µM (inactive) | 52.2 µM (inactive) | 18.8 µM (inactive) | 40.2 µM (inactive) | 24.2 µM (inactive) | 40.8 µM (inactive) | 31 µM (inactive) | 16.6 µM (inactive) | 16.6 µM (inactive) | 15 µM (inactive) | 18.7 µM (inactive) | – | 24.1 µM (inactive) | 18.9 µM (inactive) | 58.7 µM (inactive) | 35.2 | – | – | –
